Holding throughout (experiment): relative viability (nuclei count vs DMSO), 5 days (fraction); higher = more cells survive
Compound in the assay “FH535 + Linsitinib”: CC1=C(C=CC(=C1)[N+](=O)[O-])NS(=O)(=O)C2=C(C=CC(=C2)Cl)Cl [FH535] + C[C@]1(O)C[C@@H](c2nc(-c3ccc4ccc(-c5ccccc5)nc4c3)c3c(N)nccn32)C1 [Linsitinib] (partner 1 µM)
In a few lines:
(§1)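 A single step with final 0.05% Triton X-100, 1% formaldehyde and 1 ug/ml Hoechst fixed the cells and stained nuclei 5 days after treatment. Lung cancer cell lines in 1536-well plates had been treated by pin tool the day after seeding with one drug alone or a fixed anchor-drug dose plus five library-drug doses (not always all listed) in √10 steps, and nuclei were counted on 4× images. Relative viability is the ratio of nuclei in treated wells to nuclei in vehicle wells, taken as the median of duplicate plates.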

Compound in the assay “FH535 + Luminespib”: CC1=C(C=CC(=C1)[N+](=O)[O-])NS(=O)(=O)C2=C(C=CC(=C2)Cl)Cl [FH535] + CCNC(=O)c1noc(-c2cc(C(C)C)c(O)cc2O)c1-c1ccc(CN2CCOCC2)cc1 [Luminespib] (partner 0.01 µM)
A digest of the protocol:
as §1

Compound in the assay “FH535 + Pictilisib”: CC1=C(C=CC(=C1)[N+](=O)[O-])NS(=O)(=O)C2=C(C=CC(=C2)Cl)Cl [FH535] + CS(=O)(=O)N1CCN(Cc2cc3nc(-c4cccc5[nH]ncc45)nc(N4CCOCC4)c3s2)CC1 [Pictilisib] (partner 1 µM)
In a few lines:
as §1

Compound in the assay “FH535 + Phenformin”: CC1=C(C=CC(=C1)[N+](=O)[O-])NS(=O)(=O)C2=C(C=CC(=C2)Cl)Cl [FH535] + N=C(N)NC(=N)NCCc1ccccc1 [Phenformin] (partner 250 µM)
In a few lines:
as §1

Compound in the assay “FH535 + Crizotinib”: CC1=C(C=CC(=C1)[N+](=O)[O-])NS(=O)(=O)C2=C(C=CC(=C2)Cl)Cl [FH535] + C[C@@H](Oc1cc(-c2cnn(C3CCNCC3)c2)cnc1N)c1c(Cl)ccc(F)c1Cl [Crizotinib] (partner 1 µM)
A digest of the protocol:
as §1

Regarding EKVX, the relative viability in the assay with FH535 + Linsitinib (first compound 0.04 µM) was 1.03; with FH535 + Linsitinib (first compound 0.1265 µM), 1.05; with FH535 + Linsitinib (first compound 0.4 µM) it was 0.967; with FH535 + Linsitinib (first compound 1.265 µM), 0.854; with FH535 + Luminespib (first compound 0.04 µM), 0.876; in the assay with FH535 + Luminespib (first compound 0.1265 µM), 0.935. Further, the relative viability with FH535 + Luminespib (first compound 0.4 µM) was 0.859; with FH535 + Luminespib (first compound 1.265 µM), 0.764; with FH535 + Pictilisib (first compound 0.04 µM) it was 0.411; with FH535 + Pictilisib (first compound 0.1265 µM) it was 0.401; in the assay with FH535 + Pictilisib (first compound 0.4 µM), 0.411; with FH535 + Pictilisib (first compound 1.265 µM), 0.425. Further, the relative viability with FH535 + Phenformin (first compound 0.04 µM) came out at 0.238; with FH535 + Phenformin (first compound 0.1265 µM), 0.223; with FH535 + Phenformin (first compound 0.4 µM) it was 0.173; with FH535 + Phenformin (first compound 1.265 µM), 0.153; with FH535 + Crizotinib (first compound 0.04 µM), 0.824; in the assay with FH535 + Crizotinib (first compound 0.1265 µM) it was 1.07. In addition, the relative viability with FH535 + Crizotinib (first compound 0.4 µM) came to 0.998; in the assay with FH535 + Crizotinib (first compound 1.265 µM), 0.609.
As for HARA, the relative viability with FH535 + Linsitinib (first compound 0.04 µM) came to 0.774; in the assay with FH535 + Linsitinib (first compound 0.1265 µM) it was 0.889; with FH535 + Linsitinib (first compound 0.4 µM), 1.03; with FH535 + Linsitinib (first compound 1.265 µM), 0.584; with FH535 + Luminespib (first compound 0.04 µM), 0.52; with FH535 + Luminespib (first compound 0.1265 µM), 0.869. In addition, the relative viability was found to be 0.726 with FH535 + Luminespib (first compound 0.4 µM); 0.446 with FH535 + Luminespib (first compound 1.265 µM); 0.429 in the assay with FH535 + Pictilisib (first compound 0.04 µM); 0.665 in the assay with FH535 + Pictilisib (first compound 0.1265 µM); 0.368 with FH535 + Pictilisib (first compound 0.4 µM); 0.458 with FH535 + Pictilisib (first compound 1.265 µM). Besides, the relative viability in the assay with FH535 + Phenformin (first compound 0.04 µM) came out at 0.398; in the assay with FH535 + Phenformin (first compound 0.1265 µM) it was 0.368; in the assay with FH535 + Phenformin (first compound 0.4 µM), 0.269; in the assay with FH535 + Phenformin (first compound 1.265 µM), 0.205; in the assay with FH535 + Crizotinib (first compound 0.04 µM), 1.06; in the assay with FH535 + Crizotinib (first compound 0.1265 µM), 1.08. In addition, the relative viability was found to be 0.929 in the assay with FH535 + Crizotinib (first compound 0.4 µM) and 0.52 with FH535 + Crizotinib (first compound 1.265 µM).
In the case of EMC-BAC-2, the relative viability with FH535 + Linsitinib (first compound 0.04 µM) was 0.822; with FH535 + Linsitinib (first compound 0.1265 µM) it was 0.873; with FH535 + Linsitinib (first compound 0.4 µM), 0.771; with FH535 + Linsitinib (first compound 1.265 µM), 0.753; in the assay with FH535 + Luminespib (first compound 0.04 µM), 1.21; with FH535 + Luminespib (first compound 0.1265 µM), 1.23. Moreover, the relative viability was 1.12 with FH535 + Luminespib (first compound 0.4 µM); 1.04 with FH535 + Luminespib (first compound 1.265 µM); 0.506 with FH535 + Pictilisib (first compound 0.04 µM); 0.507 with FH535 + Pictilisib (first compound 0.1265 µM); 0.544 with FH535 + Pictilisib (first compound 0.4 µM); 0.526 in the assay with FH535 + Pictilisib (first compound 1.265 µM). Besides, the relative viability with FH535 + Phenformin (first compound 0.04 µM) is 0.416; with FH535 + Phenformin (first compound 0.1265 µM), 0.554; with FH535 + Phenformin (first compound 0.4 µM), 0.46; with FH535 + Phenformin (first compound 1.265 µM) it was 0.359; in the assay with FH535 + Crizotinib (first compound 0.04 µM), 0.766; with FH535 + Crizotinib (first compound 0.1265 µM), 0.799. In addition, the relative viability is 0.739 with FH535 + Crizotinib (first compound 0.4 µM) and 0.677 with FH535 + Crizotinib (first compound 1.265 µM).
Turning to PC-3 [JPC-3], the relative viability is 0.982 with FH535 + Linsitinib (first compound 0.04 µM); 0.924 with FH535 + Linsitinib (first compound 0.1265 µM); 0.891 in the assay with FH535 + Linsitinib (first compound 0.4 µM); 0.676 in the assay with FH535 + Linsitinib (first compound 1.265 µM); 0.794 in the assay with FH535 + Luminespib (first compound 0.04 µM); 0.76 with FH535 + Luminespib (first compound 0.1265 µM). Also, the relative viability stood at 0.546 with FH535 + Luminespib (first compound 0.4 µM); 0.399 in the assay with FH535 + Luminespib (first compound 1.265 µM); 0.746 in the assay with FH535 + Pictilisib (first compound 0.04 µM); 0.902 with FH535 + Pictilisib (first compound 0.1265 µM); 0.698 in the assay with FH535 + Pictilisib (first compound 0.4 µM); 0.47 in the assay with FH535 + Pictilisib (first compound 1.265 µM). Further, the relative viability in the assay with FH535 + Phenformin (first compound 0.04 µM) turned out to be 0.448; with FH535 + Phenformin (first compound 0.1265 µM) it was 0.405; with FH535 + Phenformin (first compound 0.4 µM), 0.37; with FH535 + Phenformin (first compound 1.265 µM), 0.372; with FH535 + Crizotinib (first compound 0.04 µM), 0.957; with FH535 + Crizotinib (first compound 0.1265 µM), 0.981. Also, the relative viability turned out to be 0.885 with FH535 + Crizotinib (first compound 0.4 µM) and 0.531 with FH535 + Crizotinib (first compound 1.265 µM).
